From article PMC10714743, “TrCla4 promotes actin polymerization at the hyphal tip and mycelial growth in Trichophyton rubrum” (Microbiology Spectrum, 2023)

Key:
[1] = biological target: T1, TrCla4 (Trichophyton rubrum, UniProt F2SMN8); assay: Kinase-Glo ATP consumption assay of immunoprecipitated 3xHA-TrCla4 with recombinant TrRac; type: biochemical
T1 construct: gene TERG_04196; 3xHA-TrCla4 immunoprecipitated from T. rubrum; with TrRac
T1 sequence (F2SMN8 1-888): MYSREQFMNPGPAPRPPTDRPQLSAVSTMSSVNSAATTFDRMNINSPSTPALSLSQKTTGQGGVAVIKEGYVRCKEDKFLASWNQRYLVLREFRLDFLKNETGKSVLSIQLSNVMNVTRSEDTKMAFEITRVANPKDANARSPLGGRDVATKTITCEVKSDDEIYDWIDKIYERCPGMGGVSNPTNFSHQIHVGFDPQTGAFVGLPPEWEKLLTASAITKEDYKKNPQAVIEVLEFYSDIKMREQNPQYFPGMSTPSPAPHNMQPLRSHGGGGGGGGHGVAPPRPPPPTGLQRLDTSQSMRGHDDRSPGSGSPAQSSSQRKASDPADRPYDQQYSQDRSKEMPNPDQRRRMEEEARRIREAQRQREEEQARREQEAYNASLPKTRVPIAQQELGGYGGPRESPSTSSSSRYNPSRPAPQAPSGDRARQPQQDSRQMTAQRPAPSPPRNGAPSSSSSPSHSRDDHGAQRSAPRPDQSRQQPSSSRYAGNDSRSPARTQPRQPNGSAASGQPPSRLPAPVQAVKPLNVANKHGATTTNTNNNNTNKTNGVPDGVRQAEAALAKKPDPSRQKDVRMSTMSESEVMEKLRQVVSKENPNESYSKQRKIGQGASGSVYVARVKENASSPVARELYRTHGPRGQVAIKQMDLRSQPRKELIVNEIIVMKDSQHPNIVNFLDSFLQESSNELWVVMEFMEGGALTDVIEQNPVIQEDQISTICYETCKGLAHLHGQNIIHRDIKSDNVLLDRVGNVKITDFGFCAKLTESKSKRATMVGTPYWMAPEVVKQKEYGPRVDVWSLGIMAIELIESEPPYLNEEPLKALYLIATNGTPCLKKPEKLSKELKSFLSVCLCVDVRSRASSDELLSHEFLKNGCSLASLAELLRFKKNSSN

[2] = biological target: T2, TrCla4 (Trichophyton rubrum, UniProt F2SMN8); assay: pull-down of purified GTPγS-TrRac by Tf-TrCla4 with IPA-3; also Kinase-Glo assay of immunoprecipitated 3xHA-TrCla4; type: biochemical
T2 construct: gene TERG_04196; His-, Tf- and Flag-tagged TrCla4 (E. coli BL21 lysate, Ni NTA pull-down); also immunoprecipitated 3xHA-TrCla4

In the case of `CCn1c(=O)c(-c2ccc(Cl)cc2Cl)cc2cnc(Nc3ccc(N4CCNCC4)c(F)c3)nc21` [FRAX486], the “Kinase-Glo ATP consumption assay of immunoprecipitated 3xHA-TrCla4 with recombin” value [1] is reported as “Both FRAX486 and IPA-3 inhibited the TrRac-dependent ATPase activity of 3xHA-TrCla4 (Fig. 5D)”.

For `Oc1ccc2ccccc2c1SSc1c(O)ccc2ccccc12` [IPA-3], the IC50 [2] was 2.3 µM.
